PubChem BioAssay AID328 (DTP/NCI, 2004)
Where “and” joins values, the source holds several entries; their conditions need not be identical. Equal values may be shown once. Inconclusive results and toxic doses are left out. The calls were made as follows: active = survival T/C of 150% or more; inactive = T/C below 125% in these data.

Test system: BDF1 mice, P388 leukemia ip, median survival T/C
Assay: NCI In Vivo Anticancer Drug Screen. Data for tumor model P388 Leukemia (intraperitoneal) in B6D2F1 (BDF1) mice
Settings: endpoint: median survival time, higher = longer survival
How it was run: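 Compound-treated tumour-bearing mice were compared with vehicle-treated controls. Survival was recorded, and the value is the treated-group measurement divided by the control-group measurement (T/C).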

[1] = dose: 100.0 mg/kg/injection, schedule: Q04DX003 (ip), vehicle: saline with Tween-80
[2] = dose: 200.0 mg/kg/injection, schedule: Q04DX003 (ip), vehicle: saline with Tween-80
[3] = dose: 400.0 mg/kg/injection, schedule: Q04DX003 (ip), vehicle: saline with Tween-80
[4] = dose: 25.0 mg/kg/injection, schedule: Q01DX009 (ip), vehicle: saline with Tween-80
[5] = dose: 50.0 mg/kg/injection, schedule: Q04DX003 (ip), vehicle: saline
[6] = dose: 50.0 mg/kg/injection, schedule: Q01DX009 (ip), vehicle: saline with Tween-80
[7] = dose: 100.0 mg/kg/injection, schedule: Q01DX009 (ip), vehicle: saline with Tween-80
[8] = dose: 200.0 mg/kg/injection, schedule: Q01DX009 (ip), vehicle: saline with Tween-80
[9] = dose: 100.0 mg/kg/injection, schedule: Q01DX009 (ip), vehicle: saline
[10] = dose: 400.0 mg/kg/injection, schedule: Q01DX009 (ip), vehicle: saline with Tween-80
[11] = dose: 100.0 mg/kg/injection, schedule: Q04DX003 (ip), vehicle: saline
[12] = dose: 200.0 mg/kg/injection, schedule: Q04DX003 (ip), vehicle: saline
[13] = dose: 400.0 mg/kg/injection, schedule: Q04DX003 (ip), vehicle: saline

Measured: T/C

CCNC(=S)N/N=C/c1ccc[nH]1
inactive: dose: 15.0 mg/kg/injection, schedule: Q01DX009 (ip), vehicle: saline with Tween-80 104 % of control | dose: 30.0 mg/kg/injection, schedule: Q01DX009 (ip), vehicle: saline with Tween-80 88 % of control | dose: 60.0 mg/kg/injection, schedule: Q01DX009 (ip), vehicle: saline with Tween-80 101 % of control

O=C(Nc1[nH]nc2nccnc12)C(F)(F)F
inactive: [1] 109 % of control | [2] 104 % of control | [3] 118 % of control

CN(C)c1nc(NC(=O)NC(=O)c2c(F)cccc2F)nc(N(C)C)n1
inactive: [4] 88 % of control

CC(C)(O)c1cc(Cl)ccc1Sc1ccccc1
inactive: [1] 105 % of control | [2] 91 % of control | [3] 108 % of control

OCCN(CCO)C(CO)(CO)CO
inactive: dose: 50.0 mg/kg/injection, schedule: Q01DX005 (ip), vehicle: saline 100 % of control | dose: 100.0 mg/kg/injection, schedule: Q01DX005 (ip), vehicle: saline 98 % of control | dose: 200.0 mg/kg/injection, schedule: Q01DX005 (ip), vehicle: saline 104 % of control

CCCCCCCCCCCCN(C)C
inactive: dose: 12.5 mg/kg/injection, schedule: Q04DX003 (ip), vehicle: saline 104 % of control | dose: 25.0 mg/kg/injection, schedule: Q04DX003 (ip), vehicle: saline 109 % of control | [5] 118 % of control

Nc1nc(=S)c2[nH]cnc2[nH]1
active: dose: 1.25 mg/kg/injection, schedule: Q01DX010 (ip), vehicle: saline 159 % of control
inactive: dose: 0.12 mg/kg/injection, schedule: Q01DX009 (ip), vehicle: acetone 91 % of control | dose: 0.25 mg/kg/injection, schedule: Q01DX009 (ip), vehicle: acetone 100 % of control | dose: 0.5 mg/kg/injection, schedule: Q01DX009 (ip), vehicle: acetone 104 % of control | dose: 0.63 mg/kg/injection, schedule: Q01DX010 (ip), vehicle: saline 122 % of control | dose: 1.0 mg/kg/injection, schedule: Q01DX009 (ip), vehicle: acetone 112 % of control | dose: 1.25 mg/kg/injection, schedule: Q01DX010 (ip), vehicle: other 115 % of control | dose: 2.0 mg/kg/injection, schedule: Q01DX009 (ip), vehicle: acetone 95 % of control | dose: 2.5 mg/kg/injection, schedule: Q01DX010 (ip), vehicle: other 111 % of control | dose: 2.5 mg/kg/injection, schedule: Q01DX010 (ip), vehicle: saline 104 % of control | dose: 5.0 mg/kg/injection, schedule: Q01DX010 (ip), vehicle: other 90 % of control and 100 % of control | dose: 5.0 mg/kg/injection, schedule: Q01DX010 (ip), vehicle: saline 100 % of control

CCN(C(=S)Nc1cccc(OC)c1)c1ccccc1
inactive: [6] 101 % of control | [7] 99 % of control | [8] 101 % of control

O=C(CNC(=O)Nc1n[nH]c(=S)s1)N/N=C/c1ccc2c(c1)OCO2
inactive: [6] 116 % of control | [7] 100 % of control | [8] 98 % of control

COc1cc(NC(C)CCCN)c2nccc(C)c2c1 (configuration not stated)
inactive: dose: 12.5 mg/kg/injection, schedule: Q01DX009 (ip), vehicle: saline 101 % of control | dose: 25.0 mg/kg/injection, schedule: Q01DX009 (ip), vehicle: saline 101 % of control | dose: 50.0 mg/kg/injection, schedule: Q01DX009 (ip), vehicle: saline 90 % of control and 107 % of control | [9] 88 % of control

CCOC(=O)/C(N=O)=C(\O)c1ccc2ccccc2n1
inactive: dose: 3.12 mg/kg/injection, schedule: Q01DX009 (ip), vehicle: water 106 % of control | dose: 6.25 mg/kg/injection, schedule: Q01DX009 (ip), vehicle: water 98 % of control and 99 % of control and 103 % of control | dose: 12.5 mg/kg/injection, schedule: Q01DX009 (ip), vehicle: water 111 % of control and 123 % of control | dose: 25.0 mg/kg/injection, schedule: Q01DX009 (ip), vehicle: water 94 % of control and 104 % of control and 106 % of control | dose: 25.0 mg/kg/injection, schedule: Q04DX003 (ip), vehicle: water 97 % of control | dose: 50.0 mg/kg/injection, schedule: Q01DX009 (ip), vehicle: water 100 % of control and 103 % of control | dose: 50.0 mg/kg/injection, schedule: Q04DX003 (ip), vehicle: water 120 % of control | dose: 100.0 mg/kg/injection, schedule: Q01DX009 (ip), vehicle: water 99 % of control | dose: 100.0 mg/kg/injection, schedule: Q04DX003 (ip), vehicle: water 105 % of control | dose: 200.0 mg/kg/injection, schedule: Q01DX009 (ip), vehicle: water 91 % of control | dose: 200.0 mg/kg/injection, schedule: Q04DX003 (ip), vehicle: water 97 % of control | dose: 400.0 mg/kg/injection, schedule: Q01DX009 (ip), vehicle: water 110 % of control | dose: 400.0 mg/kg/injection, schedule: Q04DX003 (ip), vehicle: water 92 % of control

CCCCCCCCCCCC1=NC(CO)(CO)CO1
inactive: dose: 100.0 mg/kg/injection, schedule: Q01DX001 (ip), vehicle: saline with Tween-80 100 % of control | dose: 200.0 mg/kg/injection, schedule: Q01DX001 (ip), vehicle: saline with Tween-80 104 % of control | dose: 400.0 mg/kg/injection, schedule: Q01DX001 (ip), vehicle: saline with Tween-80 100 % of control

COc1ccc(OC)c2c1C(=O)c1ccccc1C2=O
inactive: [4] 100 % of control | [6] 105 % of control | [7] 90 % of control | [8] 106 % of control | [10] 103 % of control

CCN(CC)C(=O)Cn1cc(F)c(N)nc1=O
inactive: [9] 95 % of control | [11] 110 % of control | dose: 200.0 mg/kg/injection, schedule: Q01DX009 (ip), vehicle: saline 90 % of control | [12] 100 % of control | [13] 100 % of control

COc1cc(CN2CCCN(Cc3cc(OC)c(OC)c(OC)c3)C2c2ccc(N(CCCl)CCCl)cc2C)cc(OC)c1OC
inactive: [5] 109 % of control | [11] 104 % of control | [12] 90 % of control | [13] 109 % of control

O=[N+]([O-])c1cccnc1Oc1cccc(C(F)(F)F)c1
inactive: dose: 50.0 mg/kg/injection, schedule: Q01DX001 (ip), vehicle: other 100 % of control | dose: 100.0 mg/kg/injection, schedule: Q01DX001 (ip), vehicle: other 95 % of control | dose: 200.0 mg/kg/injection, schedule: Q01DX001 (ip), vehicle: other 86 % of control | dose: 400.0 mg/kg/injection, schedule: Q01DX001 (ip), vehicle: other 95 % of control

COC(=O)c1oc(C(=O)OC)c(OCc2ccccc2)c1OCc1ccccc1
inactive: dose: 50.0 mg/kg/injection, schedule: Q01DX001 (ip), vehicle: saline sonified 100 % of control | dose: 100.0 mg/kg/injection, schedule: Q01DX001 (ip), vehicle: saline sonified 109 % of control | dose: 200.0 mg/kg/injection, schedule: Q01DX001 (ip), vehicle: saline sonified 90 % of control

NCc1c(Cl)c(Cl)c(Cl)c(CN)c1Cl
inactive: [6] 100 % of control | [7] 90 % of control | [8] 86 % of control

Nc1cc[c]([Hg][Cl])cc1
inactive: dose: 1.5 mg/kg/injection, schedule: Q01DX001 (ip), vehicle: Klucel (hydroxypropylcellulose) (HPC) 110 % of control | dose: 3.0 mg/kg/injection, schedule: Q01DX001 (ip), vehicle: Klucel (hydroxypropylcellulose) (HPC) 115 % of control | dose: 6.0 mg/kg/injection, schedule: Q01DX001 (ip), vehicle: Klucel (hydroxypropylcellulose) (HPC) 100 % of control and 104 % of control

CCN/C(C)=C\C(=O)OCC
inactive: [6] 95 % of control | dose: 100.0 mg/kg/injection, schedule: Q01DX009 (ip), vehicle: Klucel (hydroxypropylcellulose) (HPC) 122 % of control | [7] 100 % of control | dose: 100.0 mg/kg/injection, schedule: Q04DX003 (ip), vehicle: Klucel (hydroxypropylcellulose) (HPC) 100 % of control | dose: 200.0 mg/kg/injection, schedule: Q01DX009 (ip), vehicle: Klucel (hydroxypropylcellulose) (HPC) 111 % of control | [8] 117 % of control | dose: 200.0 mg/kg/injection, schedule: Q04DX003 (ip), vehicle: Klucel (hydroxypropylcellulose) (HPC) 100 % of control | dose: 266.0 mg/kg/injection, schedule: Q01DX009 (ip), vehicle: Klucel (hydroxypropylcellulose) (HPC) 99 % of control | dose: 400.0 mg/kg/injection, schedule: Q01DX009 (ip), vehicle: Klucel (hydroxypropylcellulose) (HPC) 99 % of control | [10] 111 % of control | dose: 400.0 mg/kg/injection, schedule: Q04DX003 (ip), vehicle: Klucel (hydroxypropylcellulose) (HPC) 100 % of control
